Key:
Assay in all cases: DiscoverX KINOMEscan kinase profiling (468 assays)
Type in all cases: binding
human kinome [1] = molecular target: human kinome (Homo sapiens, UniProt Q9UHD2); details: kinase TBK1 (Entrez TBK1); compound concentration 1000 nM; read-out: Percent Control
Method in brief: (§1)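 DNA-tagged kinases competed for immobilized biotinylated ligands on streptavidin magnetic beads, with bound kinase quantified by qPCR. VIP152 in DMSO was tested against a DMSO control.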

human kinome [2] = molecular target: human kinome (Homo sapiens, UniProt Q02763); details: kinase TIE2 (Entrez TEK); compound concentration 1000 nM; read-out: Percent Control
Method in brief: as §1

human kinome [3] = molecular target: human kinome (Homo sapiens, UniProt O15075); details: DCAMKL1 (Entrez DCLK1); 100 nM; read-out: Percent Control
Method in brief: as §1

human kinome [4] = molecular target: human kinome (Homo sapiens, UniProt P21127); details: CDC2L1 (Entrez CDK11B); 100 nM; read-out: Percent Control
Method in brief: as §1

human kinome [5] = molecular target: human kinome (Homo sapiens, UniProt O75385); details: kinase ULK1 (Entrez ULK1); compound concentration 1000 nM; read-out: Percent Control
Method in brief: as §1

human kinome [6] = molecular target: human kinome (Homo sapiens, UniProt Q2M2I8); details: AAK1; 100 nM; read-out: Percent Control
Method in brief: as §1

human kinome [7] = molecular target: human kinome (Homo sapiens, UniProt P0C264); details: kinase SgK110 (Entrez SgK110); compound concentration 1000 nM; read-out: Percent Control
Method in brief: as §1

human kinome [8] = molecular target: human kinome (Homo sapiens, UniProt Q9P2K8, S808G); details: GCN2(Kin.Dom.2,S808G) (Entrez EIF2AK4); 100 nM; read-out: Percent Control
Method in brief: as §1

human kinome [9] = molecular target: human kinome (Homo sapiens, UniProt P78368); details: CSNK1G2; 100 nM; read-out: Percent Control
Method in brief: as §1

human kinome [10] = molecular target: human kinome (Homo sapiens, UniProt Q8IWQ3); details: BRSK2; 100 nM; read-out: Percent Control
Method in brief: as §1

human kinome [11] = molecular target: human kinome (Homo sapiens, UniProt Q9Y6M4); details: CSNK1G3; 100 nM; read-out: Percent Control
Method in brief: as §1

human kinome [12] = molecular target: human kinome (Homo sapiens, UniProt O00141); details: kinase SGK (Entrez SGK1); compound concentration 1000 nM; read-out: Percent Control
Method in brief: as §1

human kinome [13] = molecular target: human kinome (Homo sapiens, UniProt P29317); details: EPHA2; 100 nM; read-out: Percent Control
Method in brief: as §1

human kinome [14] = molecular target: human kinome (Homo sapiens, UniProt Q02156); details: read-out: Percent Control
Method in brief: as §1

human kinome [15] = molecular target: human kinome (Homo sapiens, UniProt P07332); details: FES; 100 nM; read-out: Percent Control
Method in brief: as §1

human kinome [16] = molecular target: human kinome (Homo sapiens, UniProt Q9UEE5); details: DRAK1 (Entrez STK17A); 100 nM; read-out: Percent Control
Method in brief: as §1

human kinome [17] = molecular target: human kinome (Homo sapiens, UniProt P11309); details: read-out: Percent Control
Method in brief: as §1

human kinome [18] = molecular target: human kinome (Homo sapiens, UniProt P57058); details: HUNK; 100 nM; read-out: Percent Control
Method in brief: as §1

human kinome [19] = molecular target: human kinome (Homo sapiens, UniProt P53779); details: JNK3 (Entrez MAPK10); 100 nM; read-out: Percent Control
Method in brief: as §1

human kinome [20] = molecular target: human kinome (Homo sapiens, UniProt P00533, T790M); details: EGFR(T790M); 100 nM; read-out: Percent Control
Method in brief: as §1

human kinome [21] = molecular target: human kinome (Homo sapiens, UniProt Q9NYL2); details: kinase ZAK (Entrez ZAK); compound concentration 1000 nM; read-out: Percent Control
Method in brief: as §1

human kinome [22] = molecular target: human kinome (Homo sapiens, UniProt O00444); details: read-out: Percent Control
Method in brief: as §1

human kinome [23] = molecular target: human kinome (Homo sapiens, UniProt Q8IW41); details: MAPKAPK5; 100 nM; read-out: Percent Control
Method in brief: as §1

human kinome [24] = molecular target: human kinome (Homo sapiens, UniProt Q9NYY3); details: read-out: Percent Control
Method in brief: as §1

human kinome [25] = molecular target: human kinome (Homo sapiens, UniProt Q13873); details: BMPR2; 100 nM; read-out: Percent Control
Method in brief: as §1

human kinome [26] = molecular target: human kinome (Homo sapiens, UniProt Q9BYT3); details: kinase STK33 (Entrez STK33); compound concentration 1000 nM; read-out: Percent Control
Method in brief: as §1

human kinome [27] = molecular target: human kinome (Homo sapiens, UniProt P43403); details: kinase ZAP70 (Entrez ZAP70); compound concentration 1000 nM; read-out: Percent Control
Method in brief: as §1

human kinome [28] = molecular target: human kinome (Homo sapiens, UniProt Q6XUX3); details: kinase RIPK5 (Entrez DSTYK); compound concentration 1000 nM; read-out: Percent Control
Method in brief: as §1

human kinome [29] = molecular target: human kinome (Homo sapiens, UniProt Q6P3R8); details: read-out: Percent Control
Method in brief: as §1

human kinome [30] = molecular target: human kinome (Homo sapiens, UniProt P27037); details: ACVR2A; 100 nM; read-out: Percent Control
Method in brief: as §1

Chain of human kinome (Homo sapiens, UniProt Q6P3R8) (Q6P3R8 whole entry): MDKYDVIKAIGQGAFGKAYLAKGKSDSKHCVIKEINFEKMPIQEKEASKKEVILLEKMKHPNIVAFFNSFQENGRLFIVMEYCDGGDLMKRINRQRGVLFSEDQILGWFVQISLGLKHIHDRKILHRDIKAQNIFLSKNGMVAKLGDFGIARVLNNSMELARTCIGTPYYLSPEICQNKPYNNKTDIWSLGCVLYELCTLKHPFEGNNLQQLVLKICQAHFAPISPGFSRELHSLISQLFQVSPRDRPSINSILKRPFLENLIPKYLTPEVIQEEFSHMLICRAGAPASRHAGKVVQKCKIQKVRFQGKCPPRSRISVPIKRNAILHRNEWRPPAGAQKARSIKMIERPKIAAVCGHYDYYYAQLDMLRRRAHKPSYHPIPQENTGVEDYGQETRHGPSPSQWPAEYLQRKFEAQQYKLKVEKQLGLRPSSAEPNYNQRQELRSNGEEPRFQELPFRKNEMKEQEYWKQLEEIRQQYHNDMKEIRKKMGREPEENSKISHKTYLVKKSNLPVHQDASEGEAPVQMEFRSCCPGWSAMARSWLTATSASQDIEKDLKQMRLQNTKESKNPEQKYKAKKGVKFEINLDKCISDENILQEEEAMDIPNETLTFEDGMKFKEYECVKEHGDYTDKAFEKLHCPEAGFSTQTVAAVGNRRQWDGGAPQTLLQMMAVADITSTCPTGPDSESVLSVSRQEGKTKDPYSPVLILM
Chain of human kinome (Homo sapiens, UniProt O00444) (O00444 whole entry): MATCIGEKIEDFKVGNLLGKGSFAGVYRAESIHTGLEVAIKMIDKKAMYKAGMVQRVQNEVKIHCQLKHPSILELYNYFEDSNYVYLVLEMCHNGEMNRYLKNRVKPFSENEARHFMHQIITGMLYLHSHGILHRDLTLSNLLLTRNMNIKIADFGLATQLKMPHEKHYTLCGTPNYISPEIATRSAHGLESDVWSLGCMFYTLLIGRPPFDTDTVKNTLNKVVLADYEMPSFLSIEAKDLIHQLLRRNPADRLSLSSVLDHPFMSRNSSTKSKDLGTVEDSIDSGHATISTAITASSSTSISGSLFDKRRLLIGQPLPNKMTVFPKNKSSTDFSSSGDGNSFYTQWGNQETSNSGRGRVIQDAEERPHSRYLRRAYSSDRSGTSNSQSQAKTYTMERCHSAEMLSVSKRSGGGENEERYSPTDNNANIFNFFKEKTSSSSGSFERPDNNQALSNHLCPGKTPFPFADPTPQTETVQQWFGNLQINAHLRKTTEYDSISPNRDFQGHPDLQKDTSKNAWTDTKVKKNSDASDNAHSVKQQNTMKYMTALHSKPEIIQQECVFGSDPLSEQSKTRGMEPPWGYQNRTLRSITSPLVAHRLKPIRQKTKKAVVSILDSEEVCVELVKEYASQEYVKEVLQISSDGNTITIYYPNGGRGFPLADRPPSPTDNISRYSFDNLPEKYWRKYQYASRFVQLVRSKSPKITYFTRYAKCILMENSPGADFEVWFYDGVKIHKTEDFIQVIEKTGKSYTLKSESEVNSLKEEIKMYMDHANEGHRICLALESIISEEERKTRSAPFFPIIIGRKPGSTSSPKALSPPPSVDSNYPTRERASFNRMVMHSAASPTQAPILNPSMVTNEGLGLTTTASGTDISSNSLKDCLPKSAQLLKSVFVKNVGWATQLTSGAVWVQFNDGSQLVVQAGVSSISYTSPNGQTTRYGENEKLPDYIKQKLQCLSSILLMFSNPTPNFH
Chain of human kinome (Homo sapiens, UniProt Q9NYY3) (Q9NYY3 whole entry): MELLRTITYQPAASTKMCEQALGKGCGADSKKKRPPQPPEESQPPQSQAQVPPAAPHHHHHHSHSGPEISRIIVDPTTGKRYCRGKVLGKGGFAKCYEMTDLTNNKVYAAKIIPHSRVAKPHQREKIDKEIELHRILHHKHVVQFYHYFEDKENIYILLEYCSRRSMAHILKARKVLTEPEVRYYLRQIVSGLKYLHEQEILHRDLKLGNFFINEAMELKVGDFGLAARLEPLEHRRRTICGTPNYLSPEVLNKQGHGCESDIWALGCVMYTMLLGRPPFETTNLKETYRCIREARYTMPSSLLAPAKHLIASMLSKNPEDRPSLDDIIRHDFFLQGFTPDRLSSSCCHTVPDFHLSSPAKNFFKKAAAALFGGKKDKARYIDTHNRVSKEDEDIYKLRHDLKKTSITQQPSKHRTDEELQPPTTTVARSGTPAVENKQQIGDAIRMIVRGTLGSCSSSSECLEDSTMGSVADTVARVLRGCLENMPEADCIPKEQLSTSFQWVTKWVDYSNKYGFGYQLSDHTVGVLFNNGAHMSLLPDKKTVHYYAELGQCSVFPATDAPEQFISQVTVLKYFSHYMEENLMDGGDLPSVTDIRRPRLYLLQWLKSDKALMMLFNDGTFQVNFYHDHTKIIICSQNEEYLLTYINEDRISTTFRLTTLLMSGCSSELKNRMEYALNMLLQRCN
Chain of human kinome (Homo sapiens, UniProt Q02156) (Q02156 whole entry): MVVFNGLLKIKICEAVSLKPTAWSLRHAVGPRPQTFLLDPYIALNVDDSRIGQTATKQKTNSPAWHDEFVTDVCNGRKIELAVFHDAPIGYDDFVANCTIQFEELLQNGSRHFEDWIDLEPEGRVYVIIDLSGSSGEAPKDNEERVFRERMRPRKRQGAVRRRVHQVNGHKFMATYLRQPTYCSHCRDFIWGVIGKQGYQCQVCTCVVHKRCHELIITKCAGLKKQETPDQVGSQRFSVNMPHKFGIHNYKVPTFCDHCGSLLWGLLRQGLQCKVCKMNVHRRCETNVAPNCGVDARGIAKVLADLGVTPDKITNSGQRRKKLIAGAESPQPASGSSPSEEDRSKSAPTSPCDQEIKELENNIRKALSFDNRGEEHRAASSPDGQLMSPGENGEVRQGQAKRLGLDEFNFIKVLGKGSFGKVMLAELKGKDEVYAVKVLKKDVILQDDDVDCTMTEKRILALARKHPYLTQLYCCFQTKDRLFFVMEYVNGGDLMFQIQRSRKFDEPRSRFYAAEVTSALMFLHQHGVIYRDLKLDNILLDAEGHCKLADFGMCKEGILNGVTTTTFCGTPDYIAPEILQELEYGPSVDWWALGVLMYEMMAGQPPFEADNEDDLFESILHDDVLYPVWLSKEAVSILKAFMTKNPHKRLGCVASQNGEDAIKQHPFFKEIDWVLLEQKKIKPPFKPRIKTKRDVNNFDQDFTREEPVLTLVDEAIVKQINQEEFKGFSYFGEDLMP
Chain of human kinome (Homo sapiens, UniProt P11309) (P11309 whole entry): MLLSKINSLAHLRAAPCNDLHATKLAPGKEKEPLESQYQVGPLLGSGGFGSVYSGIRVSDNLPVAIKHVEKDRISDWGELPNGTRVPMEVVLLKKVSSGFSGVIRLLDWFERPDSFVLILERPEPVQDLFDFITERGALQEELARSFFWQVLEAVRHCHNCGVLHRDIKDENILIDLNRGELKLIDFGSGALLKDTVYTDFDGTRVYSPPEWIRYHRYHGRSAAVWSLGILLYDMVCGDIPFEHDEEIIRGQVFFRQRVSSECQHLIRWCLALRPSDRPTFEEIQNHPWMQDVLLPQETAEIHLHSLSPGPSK
Chain of human kinome (Homo sapiens, UniProt P07332) (P07332 whole entry): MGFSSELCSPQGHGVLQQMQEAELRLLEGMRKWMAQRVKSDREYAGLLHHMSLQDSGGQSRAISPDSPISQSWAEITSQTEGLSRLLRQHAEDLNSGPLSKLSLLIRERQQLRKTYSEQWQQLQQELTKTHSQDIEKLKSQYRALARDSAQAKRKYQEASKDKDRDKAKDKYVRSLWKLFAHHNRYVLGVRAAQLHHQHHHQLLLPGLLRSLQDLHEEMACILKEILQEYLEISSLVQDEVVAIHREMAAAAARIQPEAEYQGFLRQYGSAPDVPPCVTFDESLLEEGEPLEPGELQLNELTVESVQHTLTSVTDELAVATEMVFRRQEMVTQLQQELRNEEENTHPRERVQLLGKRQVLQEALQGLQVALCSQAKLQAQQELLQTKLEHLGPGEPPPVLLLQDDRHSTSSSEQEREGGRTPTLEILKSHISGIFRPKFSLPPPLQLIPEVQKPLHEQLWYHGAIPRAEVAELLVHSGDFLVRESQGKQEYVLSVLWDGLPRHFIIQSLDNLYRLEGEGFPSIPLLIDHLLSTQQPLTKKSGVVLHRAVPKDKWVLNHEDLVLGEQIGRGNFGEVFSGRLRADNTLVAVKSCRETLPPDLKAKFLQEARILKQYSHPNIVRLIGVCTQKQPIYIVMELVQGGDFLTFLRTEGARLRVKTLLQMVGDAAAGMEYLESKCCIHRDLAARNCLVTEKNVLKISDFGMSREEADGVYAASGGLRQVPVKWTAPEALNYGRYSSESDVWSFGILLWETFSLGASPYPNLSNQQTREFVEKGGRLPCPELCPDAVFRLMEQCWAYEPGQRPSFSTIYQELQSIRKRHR
Chain of human kinome (Homo sapiens, UniProt Q9UEE5) (Q9UEE5 whole entry): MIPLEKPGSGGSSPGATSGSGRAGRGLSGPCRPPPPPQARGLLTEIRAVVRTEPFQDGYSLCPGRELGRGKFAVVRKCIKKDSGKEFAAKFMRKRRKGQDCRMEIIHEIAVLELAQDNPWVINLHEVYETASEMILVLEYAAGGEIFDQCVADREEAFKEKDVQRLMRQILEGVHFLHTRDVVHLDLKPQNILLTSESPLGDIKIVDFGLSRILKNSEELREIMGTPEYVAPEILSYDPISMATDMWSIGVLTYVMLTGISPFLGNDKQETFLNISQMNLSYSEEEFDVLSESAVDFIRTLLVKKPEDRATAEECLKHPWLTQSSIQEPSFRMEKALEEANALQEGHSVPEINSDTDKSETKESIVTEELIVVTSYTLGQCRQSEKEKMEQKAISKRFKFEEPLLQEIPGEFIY
Chain of human kinome (Homo sapiens, UniProt P0C264) (P0C264 whole entry): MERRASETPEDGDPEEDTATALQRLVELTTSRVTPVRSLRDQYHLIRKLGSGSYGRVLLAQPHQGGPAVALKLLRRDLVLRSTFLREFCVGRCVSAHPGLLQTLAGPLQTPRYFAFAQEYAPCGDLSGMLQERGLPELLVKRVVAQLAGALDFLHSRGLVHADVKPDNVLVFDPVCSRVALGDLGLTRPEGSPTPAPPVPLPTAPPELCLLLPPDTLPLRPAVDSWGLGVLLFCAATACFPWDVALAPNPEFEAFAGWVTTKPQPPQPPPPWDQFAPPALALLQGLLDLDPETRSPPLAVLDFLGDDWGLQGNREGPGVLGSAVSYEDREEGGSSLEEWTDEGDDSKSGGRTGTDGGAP

`COc1cc(F)ccc1-c1cc(Nc2cc(CS(C)(=N)=O)ccn2)ncc1F` (centres unmarked) [VIP152] gave a remaining binding at 1 µM (human kinome [1]) of 100%, a remaining binding at 1 µM (human kinome [2]) of 86% and a remaining binding at 0.1 µM (human kinome [3]) of 91%. It also gave a remaining binding at 0.1 µM (human kinome [4]) of 100%, a remaining binding at 1 µM (human kinome [5]) of 90% and a remaining binding at 0.1 µM (human kinome [6]) of 100%. For the same compound, the remaining binding at 1 µM (human kinome [7]) was 100%, the remaining binding at 0.1 µM (human kinome [8]) was 96% and the remaining binding at 0.1 µM (human kinome [9]) was 100%. For the same compound, the remaining binding at 0.1 µM (human kinome [10]) was 99%, the remaining binding at 0.1 µM (human kinome [11]) was 98% and the remaining binding at 1 µM (human kinome [12]) was 83%. For the same compound, the remaining binding at 0.1 µM (human kinome [13]) was 92%, the remaining binding at 0.1 µM (human kinome [14]; PRKCE, 100 nM) was 58% and the remaining binding at 1 µM (human kinome [14]; kinase PRKCE (Entrez PRKCE), compound concentration 1000 nM) was 99%. It also gave a remaining binding at 0.1 µM (human kinome [15]) of 100%, a remaining binding at 0.1 µM (human kinome [16]) of 100% and a remaining binding at 0.1 µM (human kinome [17]; PIM1, 100 nM) of 100%. For the same compound, the remaining binding at 1 µM (human kinome [17]; kinase PIM1 (Entrez PIM1), compound concentration 1000 nM) was 100%, the remaining binding at 0.1 µM (human kinome [18]) was 88% and the remaining binding at 0.1 µM (human kinome [19]) was 94%. For the same compound, the remaining binding at 0.1 µM (human kinome [20]) was 100%, the remaining binding at 1 µM (human kinome [21]) was 79% and the remaining binding at 0.1 µM (human kinome [22]; PLK4, 100 nM) was 100%. It also gave a remaining binding at 1 µM (human kinome [22]; kinase PLK4 (Entrez PLK4), compound concentration 1000 nM) of 79%, a remaining binding at 0.1 µM (human kinome [23]) of 100% and a remaining binding at 0.1 µM (human kinome [24]; PLK2, 100 nM) of 100%. The remaining binding at 1 µM (human kinome [24]; kinase PLK2 (Entrez PLK2), compound concentration 1000 nM) was 83%, the remaining binding at 0.1 µM (human kinome [25]) was 99% and the remaining binding at 1 µM (human kinome [26]) was 84%. For the same compound, the remaining binding at 1 µM (human kinome [27]) was 80%, the remaining binding at 1 µM (human kinome [28]) was 42% and the remaining binding at 0.1 µM (human kinome [29]; NEK5, 100 nM) was 100%. It also gave a remaining binding at 1 µM (human kinome [29]; kinase NEK5 (Entrez NEK5), compound concentration 1000 nM) of 92% and a remaining binding at 0.1 µM (human kinome [30]) of 91%.
